The compounds below were run on Rhipicephalus sanguineus (brown dog tick) (assay: In vitro tick assay (Rhip. Funct.)). Details: unfed R. sanguineus in precoated glass vials; lowest dose at which all five ticks were seen moving; observed at 24, 48 and 72 hours.
Text: Application of octopamine agonists to acarids for example, ticks, causes distinct behavioural changes compared to untreated control ticks. Treated ticks become agitated and move constantly, this prevents ticks attaching and feeding on a host animal to which the compound has been applied. Normal behaviour of ticks is to go into stasis when all other external stimuli are removed. Agitation and movement can be measured in vitro in the laboratory to predict efficacy and potency in vivo.
The assay was run using unfed Rhipicephalus sanguineus (brown dog tick) and precoated glass vials with an inner surface area of 34.5 cm^2. Each compound was tested in duplicate.
Compound (345 μg) was dissolved in isopropyl alcohol (500 μl) and delivered to each vial. The vials were placed on a tilting roller in a fume hood for 2 hours to allow the isopropyl alcohol to evaporate giving a compound concentration for each vial of 10 μg/cm^2. Five R. sanguineus (male and female) were added to each coated vial and the vial sealed with a firm wad of cotton wool. Vials were then kept, undisturbed, on the bench at room temperature. Observation and recordings of activity were taken at 24, 48 and 72 hours after addition of ticks to the vials. The ED100 value was determined as the lowest dose at which all five ticks were seen moving around inside the vial.

Row | Structure (SMILES) | Rhip. Funct. ED100
1 | Cc1cccc(C(C)c2nccn2COC(=O)CC(C)C)c1C (centres unmarked) [Example 68, {2-[1-(2,3-Dimethylphenyl)ethyl]-1H-imidazol-1-yl}methyl 3-methyl butanoate] | 0.03 mg/cm^2
2 | Cc1cccc(C(C)c2nccn2COC(=O)OCCC(C)C)c1C (centres unmarked) [Example 139, {2-[1-(2,3-Dimethylphenyl)ethyl]-1H-imidazol-1-yl}methyl 3-methyl butyl carbonate] | <=0.03 mg/cm^2
3 | Cc1cccc(C(C)c2nccn2COC(=O)OC2CCC2)c1C (centres unmarked) [Example 141, Cyclobutyl{2-[1-(2,3-dimethylphenyl)ethyl]-1H-imidazol-1-yl}methyl carbonate] | 0.03 mg/cm^2
4 | Cc1cccc(C(C)c2nccn2COC(=O)NCCc2ccc(Cl)cc2Cl)c1C (centres unmarked) [Example 148, {2-[1-(2,3-Dimethylphenyl)ethyl]-1H-imidazol-1-yl}methyl[2-(2,4-dichlorophenyl)ethyl]carbamate] | >1 mg/cm^2
5 | CCC(CC)COC(=O)n1ccnc1[C@@H](C)c1cccc(C)c1C [Example 233, 2-Ethyl butyl 2-[(1S)-1-(2,3-dimethylphenyl)ethyl]-1H-imidazole-1-carboxylate] | <=10 mg/cm^2
6 | CCC(C)C(C)COC(=O)n1ccnc1[C@@H](C)c1cccc(C)c1C (stereo partly drawn) [Example 253, 2,3-Dimethyl pentyl 2-[(1S)-1-(2,3-dimethylphenyl)ethyl]-1H-imidazole-1-carboxylate] | 0.1 mg/cm^2
7 | Cc1cccc([C@H](C)c2nccn2C(=O)OCc2c(F)c(F)c(F)c(F)c2F)c1C [Example 270, Pentafluorobenzyl 2-[(1S)-1-(2,3-dimethylphenyl)ethyl]-1H -imidazole-1-carboxylate] | <=10 mg/cm^2
8 | Cc1cccc([C@H](C)c2nccn2C(=O)OCc2c(C)c(C)c(C)c(C)c2C)c1C [Example 294, Pentamethylbenzyl 2-[(1S)-1-(2,3-dimethylphenyl)ethyl]-1H -imidazole-1-carboxylate] | >0.03 mg/cm^2
